These results are taken from publication PMC12040169 (PLOS Biology, 2025).

The data set can be described thus: in vitro. Particulars: human, hela cells, % viability.

Regarding `COCCNC(=O)c1cc2n(n1)C(C(F)(F)F)CC(c1cccs1)N2` (stereo not drawn) [CBK307614], the viability at 28.5 h, 10 µM came to 113%.
Still for that read-out and setting: for `O=C(NC1CCCC1)c1ccccc1Cl` [CBK001992] the value was 98.3%; for `COc1cc(S(=O)(=O)Oc2ccc(OCc3ccccc3)cc2)ccc1Cl` [CBK264132], 92.2%.
The same measure, in the same setting: then `O=c1n(-c2ccccc2)c(=O)n(Cc2ccccn2)n1Cc1ccccn1` [CBK266630], with 98.7%; and `CO[C@@H](C(=O)Nc1cnc(-c2ccc(F)cc2)c(-c2ccsc2)n1)c1ccccc1` [CBK036803], with 98.4%; and `Cc1nc(NC(=O)c2c(F)cccc2F)sc1C` [CBK300495], with 76.1%.
On the same count and under the same terms, then `Cn1c(=O)c2c(nc(Nc3ccc(Cl)cc3Cl)n2CC(=O)O)n(C)c1=O` [CBK286792], with 90.5%; and `CN(C)S(=O)(=O)Nc1ccc(-c2nnn[nH]2)cc1` [CBK156312], with 96.2%; and `Nc1cccc(-c2cc(C(=O)NCCc3cccnc3)cnc2-c2ccc(F)cc2)c1` [CBK038016], with 102%.
Turning to `Cc1nc(O)cc(C2CCN(C(=O)c3scc4c3CCCC4)CC2)n1` [CBK307452], the viability at 28.5 h, 10 µM came out at 85.9%.
Same read-out and setting: then `Cc1nc2c(C(=O)NCC(F)(F)F)cnn2c(C)c1Cc1cccc(C#N)c1` [CBK162093], with 91.6%.
Same read-out and setting: then `O=C(c1cnc2ccccc2n1)N1CCC(F)CC1` [CBK200264], with 93.4%; and `COc1cc2c(cc1OC)C1c3ccccc3NC(=O)N1CC2` (stereo not drawn) [CBK284471], with 88%; and `C=CCN1C(=O)CC2(C1=O)C(=O)N(CCCN(C)S(C)(=O)=O)c1ccc(Cl)cc12` (stereo not drawn) [CBK075432], with 97.3%.
For the compound `CCN1C(=O)COC[C@@H]1[C@H](O)c1ccc(NC(=O)c2ccco2)cc1` [CBK289695], the viability at 28.5 h, 10 µM was found to be 85.3%.
On the same count and under the same terms, for `O=C1CC(NCc2ccc3c(c2)OCO3)C(=O)N1c1ccc(OC(F)(F)Cl)cc1` (stereo not drawn) [CBK074357] the value was 87.7%; for `COc1cncc(-c2cnc(N)c(NCc3cccnc3)n2)c1` [CBK063531], 110%; for `COCc1nc(NCCn2c(C)cc(C)nc2=O)cc(C2CCOC2)n1` (stereo not drawn) [CBK307495], 92.6%.
On the same count and under the same terms, then `COc1ccc(C(C)C)cc1-c1cncc(NCCc2c[nH]c3ccccc23)n1` [CBK065174], with 96.5%; and `N#Cc1c(NC(=O)C(=O)NCc2cccnc2)sc2c1CCCC2` [CBK269485], with 91%.
The same measure, in the same setting: then `Cc1cc(NC(=O)c2cc(Cl)sc2Cl)no1` [CBK010872], with 84.4%; and `O=C(c1ccccc1)N1CCC(c2cc3ncccc3[nH]2)CC1` [CBK283385], with 89.4%; and `Cc1cc(C)c(Oc2nc(=O)n([C@H]3C[C@@H](O)[C@@H](CO)O3)cc2F)c(C)c1` [CBK201184], with 96.4%.
`COc1ncccc1C(NC(=O)C1CCN(C(=O)OCc2ccccc2)CC1)c1ccccc1C` (stereo not drawn) [CBK076802]: the viability at 28.5 h, 10 µM is 90.8%.
With `CCNc1cc(-c2ccc(N3CCOCC3)cc2)ncn1` [CBK090876], the viability at 28.5 h, 10 µM was 115%.
On the same count and under the same terms, for `CC(=O)c1cccc(-c2ccc3c(c2)C(=O)NC2(CCN(C(=O)OC(C)(C)C)CC2)O3)c1` [CBK131969] the value was 95.4%; for `Cc1cc(NC(=O)NC2CC3(CCN(C)CC3)Oc3ccccc32)no1` (stereo not drawn) [CBK305059], 104%.
As for `O=C(NCc1cccs1)c1ccccc1-n1cccc1` [CBK149584], the viability at 28.5 h, 10 µM came to 92%.
The same measure, in the same setting: then `COC(=O)[C@@H]1Cc2ncn(Cc3ccc(OC)cc3)c2CN1C(=O)c1ccc(C#N)cc1` [CBK288982], with 95.4%; and `CCN(CCO)c1ccc(Nc2cc(-c3ccc(C#N)cc3)ncn2)cc1` [CBK037764], with 87.9%; and `CCCCc1ccc(-c2cnc(N)c3ncccc23)cc1` [CBK067588], with 75.7%.
On the same count and under the same terms, then `COc1cc(NC(=O)Cn2c(-c3cncs3)nc3ccccc32)cc(OC)c1OC` [CBK267640], with 97.2%; and `O=C1NC2(CCN(C(=O)c3cccs3)CC2)Oc2ccccc21` [CBK283998], with 87.3%; and `C=CCn1c(S)nnc1-c1ccc(Br)cc1` [CBK096756], with 77.3%.
Regarding `COc1ccc(Cl)cc1NC(=O)C1CN(S(=O)(=O)c2ccccc2)CCN1S(=O)(=O)c1ccccc1` (stereo not drawn) [CBK264000], the viability at 28.5 h, 10 µM came to 93.3%.
Still for that read-out and setting: for `COc1ccc(S(=O)(=O)N(C)CC(=O)O)cc1C` [CBK267176] the value was 108%.
On the same count and under the same terms, for `CC(C)(CNC(=O)Cn1cccc(C(=O)NC2CCCCC2)c1=O)c1cccc(F)c1` [CBK286069] the value was 86.9%.
Same read-out and setting: then `COc1ccc(N2CCN(CC(O)c3c[nH]c4cc(OC)ccc34)CC2)cc1` (stereo not drawn) [CBK286355], with 96.1%; and `Cc1ccc2c(c1)CC(=O)NC21CCN(CCc2noc3ccccc23)CC1` [CBK081072], with 92.2%; and `COc1ccc(CCC(=O)N2CCC(c3cccc(Cc4cccc(F)c4)n3)CC2)cc1` [CBK286212], with 105%.
With `CC(=O)Nc1ccc(-c2nc3cnccc3o2)cc1` [CBK287975], the viability at 28.5 h, 10 µM stood at 85.9%.
Consider `CCOC(=O)C(C)N1C(=O)S/C(=C/c2ccc(Oc3ccc([N+](=O)[O-])cn3)cc2)C1=O` (stereo not drawn) [CBK265114], for which the viability at 28.5 h, 10 µM came to 93.9%.
As to `COC(=O)COc1nccnc1-c1ccc(C)c(C)c1` [CBK106871], the viability at 28.5 h, 10 µM came to 83.3%.
Still for that read-out and setting: for `COc1cc(C#N)ccc1Oc1nnnn1-c1ccccc1` [CBK002571] the value was 93.1%.
On the same count and under the same terms, for `CC(C)(C)S(=O)(=O)Nc1nccnc1-c1ccc(OCc2ccccc2)cc1` [CBK050886] the value was 89.4%.
The same measure, in the same setting: for `CCN(C(=O)c1cn2c3c(cccc3c1=O)CC2)C1CCOC(C)(C)C1` (stereo not drawn) [CBK307332] the value was 90.1%.
In the case of `COc1ccc(CCCC(=O)Nc2cncc(OC3CCNCC3)n2)cc1OC` [CBK028437T], the viability at 28.5 h, 10 µM is 87.3%.
In the case of `O=C(O)C1Nc2c(C(=O)N3CCOCC3)cccc2C2C=CCC12` (stereo not drawn) [CBK275006], the viability at 28.5 h, 10 µM amounted to 104%.
In the case of `O=C(Nc1cccc(Cl)c1)N1CCC2(CC1)OCc1cc(F)ccc1O2` [CBK060722], for the setting “bulk resorufin, single well”, the viability at 28.5 h, 10 µM worked out at 87.5%.
For the compound `Cc1ccccc1N1CCC(CNC(=O)CCn2nc(C)c(C)c2C)C1` (stereo not drawn) [CBK307465], the viability at 28.5 h, 10 µM was determined as 87.7%.
For the compound `CCOC(=O)C1(c2ccccc2)CCN(C(=O)CC2NC(=O)NC2=O)CC1` (stereo not drawn) [CBK132196], the viability at 28.5 h, 10 µM (bulk resorufin, single well) worked out at 93.7%.
Consider `Oc1ccc2c(c1)C(O)CC1(CCN(CC(O)c3ccc(-c4ccccc4)cc3)CC1)O2` (stereo not drawn) [CBK286351], for which the viability at 28.5 h, 10 µM was 91.3%.
As to `O=C(NCc1ccc(Cl)cc1)c1cnc(-c2cccc(C(F)(F)F)c2)c(-c2ccncc2)c1` [CBK037607], the viability at 28.5 h, 10 µM stood at 84.8%.
On the same count and under the same terms, for `COc1ccc([C@@]23CC[C@@H](NC(=O)Nc4ccc(F)c(F)c4)C[C@@H]2N(C(=O)CN)CC3)cc1OC` [CBK051679] the value was 111%.
As for `c1cc(-c2ccc3c(c2)COC2(CCNCC2)O3)c2cccnc2c1` [CBK060995], where the note is “bulk resorufin, single well”, the viability at 28.5 h, 10 µM was 104%.
For the compound `Cc1cc2cc(C(=O)NCC3CCCN(C(C)C)C3)ccc2o1` (stereo not drawn) [CBK282625], the viability at 28.5 h, 10 µM stood at 105%.
On the same count and under the same terms, for `COCC(=O)NC1CCN(CC2(c3ccc(C)cc3)CC2)CC1` [CBK285350] the value was 104%; for `CC(=O)Nc1ccc(CN(CCO)C2CCc3ccccc32)cc1` (stereo not drawn) [CBK304104], 93.2%; for `N#Cc1c(N)nc2c(c1-c1cccnc1)CCCC2` [CBK287885], 85.8%.
Still for that read-out and setting: then `CC(C)(CO)Cn1c(=O)[nH]c2ncc(-c3cccnc3)nc21` [CBK064697], with 107%.
The same measure, in the same setting: then `O=C(Nc1ccccc1C(=O)O)c1cc(S(=O)(=O)Nc2ccc(F)cc2)ccc1Cl` [CBK263248], with 120%; and `Cn1ncc2c1C(=O)NC1c3ccccc3C(=O)N21` (stereo not drawn) [CBK113668], with 94.3%.
In the case of `COc1cc(C(=S)N2CCN(C)CC2)ccc1OCC(N)=O` [CBK269037], the viability at 28.5 h, 10 µM was determined as 84.7%.
As for `COc1ccc(-c2cc(C(=O)Nc3ccc(OC(F)(F)F)cc3)cnc2-c2ccccc2)cn1` [CBK036621], the viability at 28.5 h, 10 µM amounted to 79.2%.
Still for that read-out and setting: for `CC(C)Cn1c(CN2CCOCC2)nc2c1c(=O)n(C)c(=O)n2C` [CBK305913] the value was 91.3%.
On the same count and under the same terms, for `CC1CCCCN1CCCNc1cc(NS(=O)(=O)c2cn(C)cn2)cc2ccoc12` (stereo not drawn) [CBK067940C] the value was 94.5%.
On the same count and under the same terms, then `COc1ccc(CNc2nccs2)c(O)c1` [CBK265690], with 86.2%.
Regarding `O=C(NCCCN1CCOCC1)c1cnn2c(-c3ccccc3)cc(-c3ccccc3)nc12` [CBK263046], the viability at 28.5 h, 10 µM amounted to 79.9%.
On the same count and under the same terms, then `CCOC(=O)CN1CCN(C(=O)Nc2ccccc2Br)CC1` [CBK044156], with 103%; and `O=C(c1cccc(Cn2cccn2)c1)N1CCc2sccc2C1c1ccccc1` (stereo not drawn) [CBK285552], with 85.8%; and `O=C(CCc1cccnc1)Nc1cnc(-c2cccc(OC(F)(F)F)c2)c(-c2cccnc2)n1` [CBK036811], with 94.5%.
The same measure, in the same setting: then `CC(C)NC(=O)NC[C@H]1C[C@@H]2CC[N@]1C[C@@H]2CN1CCN(c2ncccn2)CC1` [CBK289116], with 89.7%; and `CC(NC(=O)c1cnc(-c2ccc(Cl)cc2)c(-c2ccc(O)cc2)c1)c1ccc(F)cc1` (stereo not drawn) [CBK036751], with 89.9%.
Still for that read-out and setting: then `CNCC(=O)N1c2ccccc2CCc2ccc(NC(=O)OC)cc21` [CBK261285C], with 96.5%.
As to `COc1ccc2[nH]c(=O)c(CNc3ccc(CCc4nc5ccccc5n4C)cc3)cc2c1` [CBK286162], the viability at 28.5 h, 10 µM came to 87.9%.
Still for that read-out and setting: then `CCCCN(C(C)=O)c1c(CC)nc2ccc(C(=O)N(C)CCN(C)C)cn12` [CBK145739], with 91.7%.
The same measure, in the same setting: then `CO[C@]1(c2cccc(C)c2)CC[C@@H](N2CCCCC2)CC1` [CBK015909G], with 83%; and `CN1CCN(c2ccc3ccn(S(=O)(=O)c4ccc([N+](=O)[O-])cc4)c3n2)CC1` [CBK070757C], with 104%.

As a reminder, the viability is a read-out of living cells in per cent, often relative to untreated cells.
